Test system: Plasmid (pMB57.6)-DNA
Assay type: binding
Details: 0.5 μM

Substance: SARS-CoV-2 (2019-nCoV) nucleocapsid recombinant protein [N-protein]
- decrease of fluorescence intensity of DNA-DiYO-1 complex: 96.3%
